target: T1, papain (Carica papaya, UniProt P00784); experiment: Papain inhibitory activity (milk casein proteolysis); format: biochemical; set-up: unit not given beside the values; conditions: amount of inhibitor for 50% inhibition; pH 6.8, 40° C., casein substrate
T1 construct: purchased Sigma Chem. Co
T1 sequence (P00784 134-345): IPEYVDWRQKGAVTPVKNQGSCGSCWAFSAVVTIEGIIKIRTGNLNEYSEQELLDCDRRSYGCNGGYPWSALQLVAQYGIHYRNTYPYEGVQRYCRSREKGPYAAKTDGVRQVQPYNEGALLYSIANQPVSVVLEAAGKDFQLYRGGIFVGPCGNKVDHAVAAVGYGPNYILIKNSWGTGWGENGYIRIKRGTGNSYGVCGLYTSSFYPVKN
Procedure: Papain inhibitory activity of the compounds of the present invention was assayed as follows: To 0.5 ml of a solution of papain (80 μg/ml, Sigma Chem. Co., 2x, cry.), were added 0.25 ml of 40 mM cysteine dissolved in 20 mM disodium ethylenediamine tetraacetic acid solution adjusted pH to 6.8 with sodium hydroxide and 0.25 ml of 33 mM phosphate buffer (pH 6.8) with or without inhibitor. After incubation for 15 minutes at 40° C., the resulting mixture was added to 5 ml of 1% milk casein solution in the same buffer as described above, and further incubated for 10 minutes at 40° C. Then the mixture was mixed with 5 ml of 0.44 M trichloroacetic acid solution and followed by filtration with a sheet of Toyo filter paper No. 4.
The extinction of the filtrate was read at 280 nm. The percent inhibition was calculated from the formula, 100×(B-A)/B; wherein B stands for the absorbance without inhibitor and A for the absorbance with inhibitor. The compound Nos. in Table 2 are as defined in Examples as described hereinafter.

Which ID50 does the source give for `O=C(NC1CCCCC1)[C@H]1O[C@@H]1C(=O)OC1CCCCC1` (relative stereo) [Compound No. 44, Cyclohexyl N-cyclohexyl-2,3-epoxysuccinamate] here?
The ID50 was 3.14 γ.

How did the ID50 turn out when `O=C(Nc1ccccc1)[C@H]1O[C@@H]1C(=O)OC1C=CCC1` (relative stereo) [Compound No. 46, 2'-Cyclopentenyl N-phenyl-2,3-epoxysuccinamate] was run?
The ID50 was 2.98 γ.

Which ID50 does the source give for `O=C(NC1CCCC1)[C@H]1O[C@@H]1C(=O)Oc1ccccc1` (relative stereo) [Compound No. 47, Phenyl N-cyclopentyl-2,3-epoxysuccinamate] here?
The ID50 was 3.64 γ.

`O=C(Nc1cccc(F)c1)[C@H]1O[C@@H]1C(=O)OCc1ccccc1` (relative stereo) [Compound No. 49, Benzyl N-3'-fluorophenyl-2,3-epoxysuccinamate] was tested. Which ID50 did it give?
Its ID50 is 3.94 γ.

How did the ID50 turn out when `COC(=O)[C@H]1O[C@@H]1C(=O)Nc1ccccc1` (relative stereo) [Compound No. 50, methyl N-phenyl-2,3-epoxysuccinamate] was run?
The ID50 was 16.95 γ.

For `CCOC(=O)[C@H]1O[C@@H]1C(=O)Nc1cccc(C)c1` (relative stereo) [Compound No. 51, ethyl N-3'-methylphenyl-2,3-epoxysuccinamate], which ID50 is on record?
Its ID50 is 18.66 γ.

For `CCCCOC(=O)[C@H]1O[C@@H]1C(=O)Nc1ccccc1` (relative stereo) [Compound No. 52, butyl N-phenyl-2,3-epoxysuccinamate], which ID50 is on record?
Its ID50 is 5.32 γ.

Which ID50 does the source give for `O=C(Nc1ccccc1)[C@H]1O[C@@H]1C(=O)OCC1CC=CCC1` (relative stereo) [Compound No. 53, 3'-cyclohexenemethyl N-phenyl-2,3-epoxysuccinamate] here?
The ID50 was 1.63 γ.

Which ID50 does the source give for `CCNC(=O)[C@H]1O[C@@H]1C(=O)OC` (relative stereo) [Compound No. 54, methyl N-ethyl-2,3-epoxysuccinamate] here?
Its ID50 is 10.07 γ.

With `CCOC(=O)[C@H]1O[C@@H]1C(N)=O` (relative stereo) [Compound No. 55, ethyl 2,3-epoxysuccinamate] as the compound, how does the ID50 read?
The ID50 was 3.14 γ.

How did the ID50 turn out when `CCOC(=O)[C@H]1O[C@@H]1C(=O)N(CC(C)C)CC(C)C` (relative stereo) [Compound No. 56, ethyl N,N-diisobutyl-2,3-epoxysuccinamate] was run?
The ID50 was 148.80 γ.

For `CCOC(=O)[C@H]1O[C@@H]1C(=O)N(CC)CC` (relative stereo) [Compound No. 57, ethyl N,N-diethyl-2,3-epoxysuccinamate], which ID50 is on record?
The ID50 was 46.30 γ.

`CCOC(=O)[C@H]1O[C@@H]1C(=O)N(C)Cc1ccccc1` (relative stereo) [Compound No. 58, ethyl N-methyl-N-benzyl-2,3-epoxysuccinamate] was tested. Which ID50 did it give?
Its ID50 is 231.50 γ.

`CCCN(C(=O)[C@H]1O[C@@H]1C(=O)OCC)c1ccccc1` (relative stereo) [Compound No. 59, ethyl N-propyl-N-phenyl-2,3-epoxysuccinamate] was tested. Which ID50 did it give?
The ID50 was 154.50 γ.

`COC(=O)[C@H]1O[C@@H]1C(=O)NC1CCCCC1` (relative stereo) [Compound No. 61, Methyl N-cyclohexyl-2,3-epoxysuccinamate] was tested. Which ID50 did it give?
Its ID50 is 19.65 γ.

With `CCCOC(=O)[C@H]1O[C@@H]1C(=O)Nc1ccccc1` (relative stereo) [Compound No. 62, Propyl N-phenyl-2,3-epoxysuccinamate] as the compound, how does the ID50 read?
Its ID50 is 6.16 γ.

Which ID50 does the source give for `CCCOC(=O)[C@H]1O[C@@H]1C(=O)NC1CCCC1` (relative stereo) [Compound No. 63, Propyl N-cyclopentyl-2,3-epoxysuccinamate] here?
The ID50 was 4.23 γ.

`CCCOC(=O)[C@H]1O[C@@H]1C(=O)NC(C)C` (relative stereo) [Compound No. 64, Propyl N-isopropyl-2,3-epoxysuccinamate] was tested. Which ID50 did it give?
Its ID50 is 8.32 γ.

How did the ID50 turn out when `CCNC(=O)[C@H]1O[C@@H]1C(=O)OC(C)C` (relative stereo) [Compound No. 65, Isopropyl N-ethyl-2,3-epoxysuccinamate] was run?
Its ID50 is 13.65 γ.

`CC(C)NC(=O)[C@H]1O[C@@H]1C(=O)OCc1ccccc1` (relative stereo) [Compound No. 67, Benzyl N-isopropyl-2,3-epoxysuccinamate] was tested. Which ID50 did it give?
The ID50 was 5.14 γ.

`CCOC(=O)[C@H]1O[C@@H]1C(=O)NCCCCNC(=O)OCc1ccccc1` (relative stereo) [Compound No. 68, ethyl N-carbobenzoxyaminobutyl-2,3-epoxysuccinamate] was tested. Which ID50 did it give?
The ID50 was 24.04 γ.

Which ID50 does the source give for `CCOC(=O)[C@H]1O[C@@H]1C(=O)NCCCCCNC(=O)OCc1ccccc1` (relative stereo) [Compound No. 69, ethyl N-carbobenzoxyaminopentyl-2,3-epoxysuccinamate] here?
Its ID50 is 12.05 γ.

Which ID50 does the source give for `COC(=O)[C@H]1O[C@@H]1C(=O)N1CCOCC1` (relative stereo) [Compound No. 70, Methyl N-oxydiethylene-2,3-epoxysuccinamate] here?
Its ID50 is 90.25 γ.

Which ID50 does the source give for `C=CCOC(=O)[C@H]1O[C@@H]1C(=O)NCCc1ccccc1` (relative stereo) [Compound No. 71, Allyl N-phenethyl-2,3-epoxysuccinamate] here?
Its ID50 is 4.13 γ.

`CN1CCN(C(=O)[C@H]2O[C@@H]2C(=O)OCC2CCCC2)CC1` (relative stereo) [Compound No. 72, Cyclopentanemethyl N-N'-methylaminodiethylene-2,3-epoxysuccinamate] was tested. Which ID50 did it give?
The ID50 was 146.51 γ.

With `CCOC(=O)[C@@H]1O[C@H]1C(=O)N1CCCC1` (relative stereo) [Compound No. 73, ethyl N-tetramethylene-2,3-epoxysuccinamate] as the compound, how does the ID50 read?
Its ID50 is 128.50 γ.

For `C#CCOC(=O)[C@@H]1O[C@H]1C(=O)N1CCCCC1` (relative stereo) [Compound No. 74, propargyl N-pentamethylene-2,3-epoxysuccinamate], which ID50 is on record?
Its ID50 is 39.62 γ.

How did the ID50 turn out when `CCOC(=O)[C@@H]1O[C@H]1C(=O)N1CCCC1C` (relative stereo) [Compound No. 75, ethyl N-1'-methyltetramethylene-2,3-epoxysuccinamate] was run?
The ID50 was 130.10 γ.

Which ID50 does the source give for `CCOC(=O)[C@@H]1O[C@H]1C(=O)N1CCCCC1` (relative stereo) [Compound No. 77, Ethyl N-pentamethylene-2,3-epoxysuccinamate] here?
The ID50 was 145.21 γ.

Which ID50 does the source give for `O=C(OCc1ccccc1)[C@@H]1O[C@H]1C(=O)N1CCCCC1` (relative stereo) [Compound No. 78, Benzyl N-pentamethylene-2,3-epoxysuccinamate] here?
Its ID50 is 34.23 γ.

`O=C(OCCCC1CCCC1)[C@@H]1O[C@H]1C(=O)N1CCCC1` (relative stereo) [Compound No. 79, 3'-Cyclopentanepropyl N-tetramethylene-2,3-epoxysuccinamate] was tested. Which ID50 did it give?
The ID50 was 36.25 γ.

`CCOC(=O)[C@@H]1O[C@H]1C(=O)Nc1ccccc1C(=O)O` (relative stereo) [Compound No. 81, ethyl N-2'-carboxyphenyl-2,3-epoxysuccinamate] was tested. Which ID50 did it give?
Its ID50 is 36.76 γ.

How did the ID50 turn out when `CCOC(=O)[C@@H]1O[C@H]1C(=O)Nc1cc(Cl)ccc1C(=O)O` (relative stereo) [Compound No. 82, ethyl N-2'-carboxy-5'-chlorophenyl-2,3-epoxysuccinamte] was run?
Its ID50 is 277.80 γ.

For `CCOC(=O)[C@@H]1O[C@H]1C(=O)NCC1CC1` (relative stereo) [Compound No. 83, ethyl N-cyclopropanemethyl-2,3-epoxysuccinamate], which ID50 is on record?
Its ID50 is 130.20 γ.

How did the ID50 turn out when `CNC(=O)[C@H]1O[C@@H]1C(=O)Oc1ccccc1` (relative stereo) [Compound No. 84, phenyl N-methyl-2,3-epoxysuccinamate] was run?
The ID50 was 12.65 γ.

With `CCOC(=O)[C@@H]1O[C@H]1C(=O)N(C)C` (relative stereo) [Compound No. 85, ethyl N,N-dimethyl-2,3-epoxysuccinamate] as the compound, how does the ID50 read?
Its ID50 is 39.50 γ.

How did the ID50 turn out when `CNC(=O)[C@@H]1O[C@H]1C(=O)OCCC(C)C` (relative stereo) [Compound No. 89, Isoamyl N-methyl-2,3-epoxysuccinamate] was run?
The ID50 was 14.81 γ.

With `CC(C)CCOC(=O)[C@@H]1O[C@H]1C(=O)N(C)C` (relative stereo) [Compound No. 90, Isoamyl N,N-dimethyl-2,3-epoxysuccinamate] as the compound, how does the ID50 read?
The ID50 was 50.25 γ.

`CNC(=O)[C@H]1O[C@@H]1C(=O)OCc1ccccc1` (relative stereo) [Compound No. 91, Benzyl N-methyl-2,3-epoxysuccinamate] was tested. Which ID50 did it give?
The ID50 was 9.68 γ.

`CCOC(=O)[C@@H]1O[C@H]1C(=O)N1CCCCC1C(=O)OCc1ccccc1` (relative stereo) [Compound No. 92, Ethyl N-1'-carbobenzoxypentamethylene-2,3-epoxysuccinamate] was tested. Which ID50 did it give?
The ID50 was 120.10 γ.

How did the ID50 turn out when `CC(C)OC(=O)[C@@H]1O[C@H]1C(=O)Nc1ccccc1` (relative stereo) [Compound No. 93, isopropyl N-phenyl-2,3-epoxysuccinamate] was run?
The ID50 was 21.55 γ.

`O=C(Nc1ccccc1)[C@@H]1O[C@H]1C(=O)OCC1CCCCC1` (relative stereo) [Compound No. 94, cyclohexanemethyl N-phenyl-2,3-epoxysuccinamate] was tested. Which ID50 did it give?
The ID50 was 1.51 γ.

`O=C(O)[C@@H]1O[C@H]1C(=O)Nc1ccccc1` (relative stereo) [Compound No. 95, potassium N-phenyl-2,3-epoxysuccinamate] was tested. Which ID50 did it give?
Its ID50 is 0.330 γ.

Which ID50 does the source give for `O=C(O)[C@@H]1O[C@H]1C(=O)NCc1ccccc1` (relative stereo) [Compound No. 96, potassium N-benzyl-2,3-epoxysuccinamate] here?
Its ID50 is 0.158 γ.
